Test results published in patent US9512120B2, “Microbicidally active imidazopyridine derivatives” (Syngenta Participations AG, priority 2013, dated 2016).

Assays:
[1] = test system: Thanatephorus cucumeris (Rhizoctonia solani); test: Thanatephorus cucumeris (Rhizoctonia solani) / liquid culture (foot rot, damping-off); format: cell-based; settings: PDB, 24° C., 3-4 days after application, read-out: control of Thanatephorus cucumeris (inhibition of growth, photometric)
Procedure: Thanatephorus cucumeris (Rhizoctonia solani)/Liquid Culture (Foot Rot, Damping-Off): Mycelia fragments of a newly grown liquid culture of the fungus are directly mixed into nutrient broth (PDB potato dextrose broth). After placing a DMSO solution of the test compounds into a 96-well microtiter plate at an application rate of 200 ppm, the nutrient broth containing the fungal material was added. The test plates were incubated at 24° C. and the inhibition of growth was determined photometrically 3-4 days after application.

[2] = test system: Pyrenophora teres; test: Pyrenophora teres / barley / leaf disc preventative (net blotch); format: in vivo; settings: foliar, barley leaf segments cv Hasso, inoculated two days after application, assessed 5-7 days after application, read-out: control of Pyrenophora teres (disease control compared to untreated)
Procedure: Pyrenophora Teres/Barley/Leaf Disc Preventative (Net Blotch): Barley leaf segments cv Hasso are placed on agar in a 24-well plate and sprayed with formulated test compound diluted in water at an application rate of 200 ppm. The leaf segments are inoculated with a spore suspension of the fungus two days after application of the test solution. The inoculated leaf segments are incubated at 20° C. and 65% relative humidity under a light regime of 12/12 h (light/dark) in a climate cabinet and the activity of a compound is assessed as disease control compared to untreated when an appropriate level of disease damage appears in untreated check leaf segments (5-7 days after application).

[3] = test system: Botryotinia fuckeliana (Botrytis cinerea); test: Botryotinia fuckeliana (Botrytis cinerea) / liquid culture (gray mould); format: cell-based; settings: Vogels broth, 24° C., 3-4 days after application, read-out: control of Botryotinia fuckeliana (inhibition of growth, photometric)
Procedure: (§1) Botryotinia Fuckeliana (Botrytis cinerea)/Liquid Culture (Gray Mould): Conidia of the fungus from cryogenic storage were directly mixed into nutrient broth (Vogels broth). After placing a DMSO solution of test compound into a 96-well microtiter plate at an application rate of 200 ppm, the nutrient broth containing the fungal spores was added. The test plates were incubated at 24° C. and the inhibition of growth was determined photometrically 3-4 days after application.

[4] = test system: Mycosphaerella graminicola (Septoria tritici); test: Mycosphaerella graminicola (Septoria tritici) / liquid culture (Septoria blotch); format: cell-based; settings: Zymoseptoria tritici, PDB, 24° C., 4-5 days after application, read-out: control of Mycosphaerella graminicola (inhibition of growth, photometric)
Procedure: as §1, with “Mycosphaerella graminicola (Septoria tritici)/Liquid” for “Botryotinia Fuckeliana (Botrytis cinerea)/Liquid”, “(Septoria Blotch):” for “(Gray Mould):”, “(PDB potato dextrose” for “(Vogels”, “4-5” for “3-4”

[5] = test system: Puccinia recondita f. sp. Tritici; test: Puccinia recondita f. sp. tritici / wheat / leaf disc preventative (brown rust); format: in vivo; settings: foliar, wheat leaf segments cv Kanzler, inoculated 1 day after application, assessed 7-9 days after application, read-out: control of Puccinia recondita f. sp. Tritici (percent disease control compared to untreated)
Procedure: Puccinia recondita f. Sp. Tritici/Wheat/Leaf Disc Preventative (Brown Rust): Wheat leaf segments cultivated variety (cv) Kanzler were placed on agar in 24-well plates and sprayed with formulated test compound diluted in water at an application rate of 200 ppm. The leaf disks were inoculated with a spore suspension of the fungus 1 day after application. The inoculated leaf segments were incubated at 19° C. and 75% relative humidity under a light regime of 12/12 h (light/dark) in a climate cabinet and the activity of a compound was assessed as percent disease control compared to untreated when an appropriate level of disease damage appears in untreated check leaf segments (7-9 days after application).

SMILES: CCn1c(-n2ncnc2N)nc2cncc(-c3cccc(C(F)(F)F)c3)c21 [Compound 31, 2-[1-ethyl-7-[3-(trifluoromethyl)phenyl]imidazo[4,5-c]pyridin-2-yl]-1,2,4-triazol-3-amine]
- inhibition at 20 ppm [1]: ≥ 80%
- pest or weed control at 200 ppm [2]: ≥ 80%
- inhibition at 20 ppm [3]: ≥ 80%

SMILES: CCn1c(-n2ncnc2N)nc2cncc(-c3ccccc3C(F)(F)F)c21 [Compound 32, 2-[1-ethyl-7-[2-(trifluoromethyl)phenyl]imidazo[4,5-c]pyridin-2-yl]-1,2,4-triazol-3-amine]
- inhibition at 20 ppm [1]: ≥ 80%
- pest or weed control at 200 ppm [2]: ≥ 80%

SMILES: CCn1c(-n2ncnc2N)nc2cncc(-c3cccc(Cl)c3)c21 [Compound 34, 2-[7-(3-chlorophenyl)-1-ethylimidazo[4,5-c]pyridin-2-yl]-1,2,4-triazol-3-amine]
- inhibition at 20 ppm [1]: ≥ 80%
- pest or weed control at 200 ppm [2]: ≥ 80%
- inhibition at 20 ppm [3]: ≥ 80%
- inhibition at 20 ppm [4]: ≥ 80%

SMILES: CCn1c(-n2ncnc2N)nc2cncc(-c3ccc(Cl)c(Cl)c3)c21 [Compound 36, 2-[7-(3,4-dichlorophenyl)-1-ethylimidazo[4,5-c]pyridin-2-yl]-1,2,4-triazol-3-amine]
- inhibition at 20 ppm [1]: ≥ 80%
- pest or weed control at 200 ppm [2]: ≥ 80%
- pest or weed control at 200 ppm [5]: ≥ 80%
- inhibition at 20 ppm [4]: ≥ 80%

SMILES: CCn1c(-n2ncnc2N)nc2cncc(-c3ccc(OC)c(F)c3)c21 [Compound 43, 2-[1-ethyl-7-(3-fluoro-4-methoxyphenyl)imidazo[4,5-c]pyridin-2-yl]-1,2,4-triazol-3-amine]
- inhibition at 20 ppm [1]: ≥ 80%
- pest or weed control at 200 ppm [2]: ≥ 80%
- inhibition at 20 ppm [3]: ≥ 80%
- inhibition at 20 ppm [4]: ≥ 80%

SMILES: CCn1c(-n2ncnc2N)nc2cncc(-c3ccc(C)c([N+](=O)[O-])c3)c21 [Compound 44, 2-[1-ethyl-7-(4-methyl-3-nitrophenyl)imidazo[4,5-c]pyridin-2-yl]-1,2,4-triazol-3-amine]
- inhibition at 20 ppm [1]: ≥ 80%

SMILES: CCn1c(-n2ncnc2N)nc2cncc(-c3ccc(C)c(C)c3)c21 [Compound 46, 2-[7-(3,4-dimethylphenyl)-1-ethylimidazo[4,5-c]pyridin-2-yl]-1,2,4-triazol-3-amine]
- inhibition at 20 ppm [1]: ≥ 80%
- inhibition at 20 ppm [3]: ≥ 80%
- inhibition at 20 ppm [4]: ≥ 80%

SMILES: CCn1c(-n2ncnc2N)nc2cncc(-c3cc(C)c(OC)c(C)c3)c21 [Compound 47, 2-[1-ethyl-7-(4-methoxy-3,5-dimethylphenyl)imidazo[4,5-c]pyridin-2-yl]-1,2,4-triazol-3-amine]
- inhibition at 20 ppm [1]: ≥ 80%
- pest or weed control at 200 ppm [2]: ≥ 80%
- pest or weed control at 200 ppm [5]: ≥ 80%

SMILES: CCn1c(-n2ncnc2N)nc2cncc(-c3ccc(Cl)c(C(F)(F)F)c3)c21 [Compound 49]
- inhibition at 20 ppm [1]: ≥ 80%
- pest or weed control at 200 ppm [2]: ≥ 80%
- inhibition at 20 ppm [3]: ≥ 80%
- inhibition at 20 ppm [4]: ≥ 80%

SMILES: CCn1c(-n2ncnc2N)nc2cncc(-c3cc4ccccc4o3)c21 [Compound 51, 2-[7-(1-benzofuran-2-yl)-1-ethylimidazo[4,5-c]pyridin-2-yl]-1,2,4-triazol-3-amine]
- inhibition at 20 ppm [1]: ≥ 80%
- pest or weed control at 200 ppm [2]: ≥ 80%

SMILES: CCn1c(-n2ncnc2N)nc2cncc(-c3cc(C)sc3C)c21 [Compound 52, 2-[7-(2,5-dimethylthiophen-3-yl)-1-ethylimidazo[4,5-c]pyridin-2-yl]-1,2,4-triazol-3-amine]
- inhibition at 20 ppm [1]: ≥ 80%
- inhibition at 20 ppm [3]: ≥ 80%
- inhibition at 20 ppm [4]: ≥ 80%

SMILES: CCn1c(-n2ncnc2N)nc2cncc(-c3ccc(-c4ccc(F)cc4)nc3)c21 [Compound 54, 2-[1-ethyl-7-[6-(4-fluorophenyl)pyridin-3-yl]imidazo[4,5-c]pyridin-2-yl]-1,2,4-triazol-3-amine]
- inhibition at 20 ppm [1]: ≥ 80%
- inhibition at 20 ppm [3]: ≥ 80%
- pest or weed control at 200 ppm [5]: ≥ 80%
- inhibition at 20 ppm [4]: ≥ 80%

SMILES: CCn1c(-n2ncnc2N)nc2cncc(-c3cccnc3OC)c21 [Compound 58, 2-[1-ethyl-7-(2-methoxypyridin-3-yl)imidazo[4,5-c]pyridin-2-yl]-1,2,4-triazol-3-amine]
- inhibition at 20 ppm [1]: ≥ 80%
- pest or weed control at 200 ppm [2]: ≥ 80%

SMILES: CCn1c(-n2ncnc2N)nc2cncc(-c3ccc(C(F)(F)F)nc3)c21 [Compound 63, 2-[1-ethyl-7-[6-(trifluoromethyl)pyridin-3-yl]imidazo[4,5-c]pyridin-2-yl]-1,2,4-triazol-3-amine]
- inhibition at 20 ppm [1]: ≥ 80%
- pest or weed control at 200 ppm [2]: ≥ 80%

SMILES: CCn1c(-n2ncnc2N)nc2cncc(-c3cnc(Cl)c(C)c3)c21 [Compound 65, 2-[7-(6-chloro-5-methylpyridin-3-yl)-1-ethylimidazo[4,5-c]pyridin-2-yl]-1,2,4-triazol-3-amine]
- inhibition at 20 ppm [1]: ≥ 80%
- pest or weed control at 200 ppm [2]: ≥ 80%

SMILES: CCn1c(-n2ncnc2N)nc2cncc(C=CC3CCCCC3)c21 [Compound 70, 2-[7-(2-cyclohexylethenyl)-1-ethylimidazo[4,5-c]pyridin-2-yl]-1,2,4-triazol-3-amine]
- pest or weed control at 200 ppm [2]: ≥ 80%
- inhibition at 20 ppm [4]: ≥ 80%

SMILES: CCn1c(-n2ncnc2N)nc2cncc(C=Cc3ccc(C)cc3)c21 [Compound 71, 2-[1-ethyl-7-[2-(4-methylphenyl)ethenyl]imidazo[4,5-c]pyridin-2-yl]-1,2,4-triazol-3-amine]
- inhibition at 20 ppm [1]: ≥ 80%

SMILES: CCn1c(-n2ncnc2N2C(=O)CCC2=O)nc2cncc(C(C)=O)c21 [Compound 113, 1-[2-(7-acetyl-1-ethylimidazo[4,5-c]pyridin-2-yl)-1,2,4-triazol-3-yl]pyrrolidine-2,5-dione]
- pest or weed control at 200 ppm [2]: ≥ 80%

SMILES: CCn1c(-n2ncnc2N2C(=O)CCC2=O)nc2cncc(-c3ccc(Cl)cc3Cl)c21 [Compound 114]
- pest or weed control at 200 ppm [2]: ≥ 80%

SMILES: Nc1ncnn1-c1nc2cncc(-c3ccc(Cl)cc3Cl)c2n1C1CC1 [Compound 119, 2-[1-cyclopropyl-7-(2,4-dichlorophenyl)imidazo[4,5-c]pyridin-2-yl]-1,2,4-triazol-3-amine]
- inhibition at 20 ppm [1]: ≥ 80%
- pest or weed control at 200 ppm [2]: ≥ 80%
- inhibition at 20 ppm [4]: ≥ 80%

SMILES: Nc1ncnn1-c1nc2cncc(-c3ccccc3Cl)c2n1C1CC1 [Compound 125, 2-[7-(2-chlorophenyl)-1-cyclopropylimidazo[4,5-c]pyridin-2-yl]-1,2,4-triazol-3-amine]
- inhibition at 20 ppm [1]: ≥ 80%

SMILES: Nc1ncnn1-c1nc2cncc(-c3ccccc3Cl)c2n1C1CCCCC1 [Compound 126, 2-[7-(2-chlorophenyl)-1-cyclohexylimidazo[4,5-c]pyridin-2-yl]-1,2,4-triazol-3-amine]
- inhibition at 20 ppm [3]: ≥ 80%

SMILES: CCOC(=O)C(C)O/N=C(\C)c1cncc2nc(-n3ncnc3N)n(CC)c12 (stereo not drawn) [Compound 159]
- inhibition at 20 ppm [1]: ≥ 80%

SMILES: CCn1c(-n2ncnc2N)nc2cncc(/C(C)=N/OCC(C)C)c21 [Compound 162]
- inhibition at 20 ppm [1]: ≥ 80%
- pest or weed control at 200 ppm [5]: ≥ 80%
- inhibition at 20 ppm [4]: ≥ 80%

SMILES: CCn1c(-n2ncnc2N)nc2cncc(C(C)=NOCc3cc(Cl)c(Cl)cc3Cl)c21 [Compound 164]
- inhibition at 20 ppm [1]: ≥ 80%
- pest or weed control at 200 ppm [2]: ≥ 80%
- inhibition at 20 ppm [4]: ≥ 80%

SMILES: CCn1c(-n2ncnc2N)nc2cncc(/C(C)=N/OC(C)C)c21 [Compound 167]
- inhibition at 20 ppm [1]: ≥ 80%
- pest or weed control at 200 ppm [2]: ≥ 80%
- pest or weed control at 200 ppm [5]: ≥ 80%
- inhibition at 20 ppm [4]: ≥ 80%

SMILES: CCn1c(-n2ncnc2N)nc2cncc(C(C)=NOc3ccccc3)c21 [Compound 168]
- inhibition at 20 ppm [1]: ≥ 80%
- pest or weed control at 200 ppm [2]: ≥ 80%
- pest or weed control at 200 ppm [5]: ≥ 80%
- inhibition at 20 ppm [4]: ≥ 80%

SMILES: Cc1cncc2nc(-n3ncnc3N)n(C3CC3)c12 [Compound 175, 2-(1-cyclopropyl-7-methyl-imidazo[4,5-c]pyridin-2-yl)-1,2,4-triazol-3-amine]
- pest or weed control at 200 ppm [2]: ≥ 80%

SMILES: C=C(C)CO/N=C(\C)c1cncc2nc(-n3ncnc3N)n(CC)c12 [Compound 179]
- inhibition at 20 ppm [1]: ≥ 80%
- inhibition at 20 ppm [3]: ≥ 80%
- inhibition at 20 ppm [4]: ≥ 80%
